Entries after “also recorded” stand apart in the source; their conditions may differ. Each block holds one molecule with its values, some of them ahead of it.
What was measured:
Empoasca decipiens = experiment: In vitro Empoasca non-choice (direct feeding) assay on artificial diet; format: in vivo; settings: for changes in mortality rates of E. decipiens compared to glucose controls: physiologically relevant concentrations (CoP 7 μM, CP 100 μM, FP 10 μM) in 10% glucose solution
Procedure: FIG. 18 Mortality rates of in vitro Empoasca non-choice assays (n=4, 25 Empoasca leafhoppers per replicate) in which Empoasca were fed for 6 h with either 1 μM m/z 347.19 synthesized by using NaPPO1/NaPPO2 and CP and Z3H and diluted in 10% glucose solution or with 10% glucose as control (top). Empoasca in planta choice assays (n=8) conducted with VIGS plants of EV, PPO1, PPO2 and AT1 (bottom).
To test if CPH is responsible for Empoasca resistance, E. decipiens were fed with physiologically relevant concentrations of 1 μM (estimated from field-collected elicited leaves) of NMR-confirmed CPH in diets containing 10% glucose in vitro. […] NaAT1 expression was silenced in N. attenuata plants using VIGS, which disrupted the production of both CP and the CPH (Li et al., Proc Natl Acad Sci USA 112, E4147-4155 (2015)) (FIG. 13).
Empoasca feeding assays: The survival rate of Empoasca feeding on artificial diet (10% 5 sucrose in water) supplemented with caffeoylputrescine (CP, 100 μM), coumaroylputrescine (CoP, 7 μM), feruloylputrescine (FP, 10 μM), or the m/z 347.19 hexenyl derivative of CP (CPH, 1 μM) was recorded every 1 h overnight. The artificial feeding devices consisted of a 50-mL Falcon tube with a 7-mm hole drilled into the conical bottom through which the leafhoppers were aspi-rated into the tube and which then was covered with Parafilm punctured with needles to create ventilation holes. The large opening of the Falcon tube was covered with a double layer of Parafilm containing the liquid diet (100 μL). The artificial feeding devices were placed upside down with the liquid diet side down on a White Light Box (STRATAGENE) to provide bottom-light illu-mination.

[1] = Estimation of half-life of m/z 347.19 by NMR time acquisitions; format: physicochemical; settings: acidified methanol-d3 (0.1% formic acid), room temperature, darkness
From the text: FIG. 55 Estimation of half-life of m/z 347.19. Different time acquisitions of NMR spectra for purified m/z 347.19 are shown.
(§1) To elucidate the chemical structure of m/z 347.19, it was attempted to isolate and purify the m/z 347.19 using induced N. attenuata leaf material and enzyme assay-derived products. However, several attempts failed due to the instability of m/z 347.19. […] These observations indicate that m/z 347.19 is reactive and unstable at high pH. The purification procedures for m/z 347.19 were modified to produce large quantities from enzymatic assays under weak acidic conditions and purified m/z 347.19 using solid phase extraction under argon atmospheres. The purified m/z 347.19 was then subjected to NMR analysis, which elucidated its structural identity as a CP-5-(Z)-3-hexenal compound (hereafter named CPH) (FIG. 54). […] CPH contains both a reactive moiety of a, 3-unsaturated aldehyde derived from (Z)-3-hexenal, which is electrophilic, and an amine feature of the caffeoylputrescine, which is nucleophilic.

[2] = Stability of m/z 347.19 during sample extraction and purification; format: physicochemical
From the text: as §1

NaPPO1 = molecular target: T1, NaPPO1 (Nicotiana attenuata, UniProt A0A1J6JLI9); experiment: In vitro enzyme assay, substrate specificity of NaPPO1; format: biochemical
T1 sequence (A0A1J6JLI9 1-596): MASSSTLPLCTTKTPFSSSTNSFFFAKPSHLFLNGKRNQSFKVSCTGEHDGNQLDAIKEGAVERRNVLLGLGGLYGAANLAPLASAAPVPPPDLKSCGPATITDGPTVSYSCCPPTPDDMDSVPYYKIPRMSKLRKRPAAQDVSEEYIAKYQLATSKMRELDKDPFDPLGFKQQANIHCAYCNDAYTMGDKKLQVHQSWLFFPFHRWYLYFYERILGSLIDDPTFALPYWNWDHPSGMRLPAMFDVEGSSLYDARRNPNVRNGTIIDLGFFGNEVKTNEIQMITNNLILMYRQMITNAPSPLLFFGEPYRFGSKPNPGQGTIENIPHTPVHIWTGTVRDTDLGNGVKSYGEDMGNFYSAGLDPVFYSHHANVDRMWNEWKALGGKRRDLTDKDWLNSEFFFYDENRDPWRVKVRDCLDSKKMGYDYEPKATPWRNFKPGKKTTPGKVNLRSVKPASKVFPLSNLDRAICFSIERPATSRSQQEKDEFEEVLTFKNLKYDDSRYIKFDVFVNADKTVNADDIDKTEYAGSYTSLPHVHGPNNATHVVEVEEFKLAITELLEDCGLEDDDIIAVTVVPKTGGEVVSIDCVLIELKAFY
From the text: (§2) Extracted ion chromatograms (EIC) for doubly charged CP dimer (m/z 250.13) and m/z 347.19 in E. coli expressing NaPPO1 and NaPPO2 with CP and Z3H or (E)-2-hexenal. Compounds 1, 2, 3, 4 denote isomers of CP dimer; compounds 5, 6 denote isomers of m/z 347.19.
(§3) FIG. 53 Substrate specificity of NaPPO1 and NaPPO2 enzymes. Overlay of total ion chromatograms (TIC) of enzyme assays for authentic chlorogenic acid (CGA std), N-coumaroylputrescine (CoP std), (Z)-3-hexenal or (E)-2-hexenal with purified NaPPO1/NaPPO2 from E. coli. Compounds 1 and 2 denote CGA and CoP; 3 and 4 denote contamination peaks from (Z)-3-hexenal and CoP standards, respectively.
(§4) To test this hypothesis, purified NaPPO1, NaPPO2 and NaBBL2 proteins with N-terminal hexahistidine tags after expression in Escherichia coli were isolated (FIGS. 44-45). Incubation of either NaPPO1 or NaPPO2 (NaPPO1/2) with CP and (Z)-3-hexenal yielded a m/z 347.19 peak with identical MS/MS spectrum and retention time as the m/z 347.19 induced in N. attenuata leaves (FIG. 46). Additionally, by-products of doubly charged CP dimers at m/z 250.13 ([M+2H]2+, C26H36N4O62+) which are not detected in oral secretion-induced leaves of N. attenuata WT (Data 2) were also produced in vitro (FIG. 16 and FIG. 47). These doubly charged CP dimers were only produced when the quantities of the (Z)-3-hexenal substrate were lower than those of the CP substrate in vitro. […]
(§5) In vitro assays of NaPPO1, NaPPO2, and NaBBL2: NaPPO1, NaPPO2, and NaBBL2 enzyme activity assays were performed by incubating 100 μg of the purified recombinant protein in 84 mM acetate buffer (pH 4.8) containing 20 mM (E)-N-caffeoylputrescine (BOC Sciences, catalogue #: B0005-053482) and 1 M cis-3-hexenal (Sigma, catalogue #: W256102-SAMPLE-K) or trans-2-hexenal (Sigma, catalogue #: W256005-1KG-K). During incubation of the enzyme reactions at 8° C., 1 μL of the reactions buffer was directly injected and analyzed by LC-MS every h to detect products. […]

NaPPO2 = NaPPO2 (Nicotiana attenuata, UniProt A0A1J6IKE9); experiment: In vitro enzyme assay, substrate specificity of NaPPO2; format: biochemical
Chain of NaPPO2 (A0A1J6IKE9 entry or part of it): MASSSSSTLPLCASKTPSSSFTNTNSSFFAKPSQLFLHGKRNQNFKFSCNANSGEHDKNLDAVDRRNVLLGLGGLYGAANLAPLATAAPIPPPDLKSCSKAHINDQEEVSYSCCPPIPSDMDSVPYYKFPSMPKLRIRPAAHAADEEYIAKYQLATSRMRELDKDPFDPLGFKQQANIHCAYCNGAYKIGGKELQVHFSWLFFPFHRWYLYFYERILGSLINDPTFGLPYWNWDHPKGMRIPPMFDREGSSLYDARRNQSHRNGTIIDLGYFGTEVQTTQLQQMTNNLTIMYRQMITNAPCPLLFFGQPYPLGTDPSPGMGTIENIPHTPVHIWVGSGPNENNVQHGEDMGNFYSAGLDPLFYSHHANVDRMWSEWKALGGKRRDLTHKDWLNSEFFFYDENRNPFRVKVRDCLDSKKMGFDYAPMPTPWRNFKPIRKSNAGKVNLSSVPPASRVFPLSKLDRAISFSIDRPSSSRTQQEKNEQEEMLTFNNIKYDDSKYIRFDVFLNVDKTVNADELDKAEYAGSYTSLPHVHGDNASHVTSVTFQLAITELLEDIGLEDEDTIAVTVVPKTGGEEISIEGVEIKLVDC
From the text: as §2, §3, §4, §5

Empoasca leafhoppers = experiment: In vivo Empoasca choice assay, compounds infiltrated into irMYC2 leaves; set-up: species or system Empoasca decipiens; settings: synthetic CoP 7 μM, CP 100 μM, FP 10 μM in 0.1% DMSO infiltrated into irMYC2 leaves
Procedure: The spermi-dine-derived metabolites could be excluded as mediators of Empoasca nonhost resistance based on the lack of responses of leafhoppers to the irDH29 and irCV86 lines (FIG. 5). To further explore the involvement of CoP, CP and FP, in vivo Empoasca choice assays were conducted by individually infiltrating physiologically relevant concentrations of synthetic CoP (7 μM), CP (100 μM) and FP (10 μM) into leaves of irMYC2 plants which were devoid of elicited phenolamides (FIG. 9 and FIG. 34).
Two replicates of the 650 RILs from a 26-parent MAGIC population and their 26 parental 5 lines were planted at the WCCER field station, Prescott, Arizona, USA. To elicit a standardized herbivory response, leaves of all RILs, which were in the early-flowering stage were wounded and immediately treated with diluted Manduca sexta oral secretions (W+OS) or left untreated (control) and harvested on dry ice at 1 h and 72h. One week after metabolite sampling, all plants of the field population were screened for natural Empoasca leafhopper numbers and damage; these leafhoppers had opportunistically sampled the N. attenuata plants from neighboring native cu-cumber hostplants. The mQTL and eQTL mapping between SNPs and the relative abundance of each compound or transcript using a set of 646 RILs of the MAGIC population was done with the R package software GAPIT using General linear models (GLM). The multi-omics co-association network was built from correlations among metabolomes, transcriptomes, phytohormones and SNPs. […] Metabolome diversity and specialization and metabolic specificity was calculated using information theory by consider-ing the Shannon entropy of the idMS/MS frequency distributions. […] OS-induced volatile emissions were collected using polydimethylsiloxane (PDMS) tubing from 650 MAGIC RILs planted in the main MPI-CE glasshouse and analyzed bythermal desorption-gas chromatography-mass spectrometry (TD-GC-MS). […]

half-life [1]: ~22 h
Stability ([2]; Leaf sample collection using Eppendorf tubes without direct contact with liquid N2): Yes
Stability ([2]; Leaf sample collection using aluminium foil in liquid N2): No
Stability ([2]; Purifying using SPE column with argon flow): Yes
Stability ([2]; Purifying using freeze drying): No
Stability ([2]; Purifying using rotary evaporator): No
Stability ([2]; Sample extraction buffer pH 4.8): Yes
Stability ([2]; Sample extraction buffer pH 10): No
stability in buffer ([2]; ammonium-acetate buffer (pH 4.8)): relatively stable
stability when concentrated ([2]; concentrated by rotatory evaporation or freeze drying): rapidly decomposed
stability at high pH ([2]; high pH): unstable
SMILES: CCC(/C=C/C=O)c1cc(O)c(O)cc1/C=C/C(=O)NCCCCN (centres unmarked) [CPH, CP-5-(Z)-3-hexenal]
mortality at 1 µM (Empoasca decipiens; Empoasca decipiens, feed or water, 1 μM in diet containing 10% glucose, after 6 h of feeding, vs control diet, read-out: mortality of E. decipiens): ~100%

SMILES: CCC/C=C/C=O [(E)-2-hexenal]
enzyme activity (m/z 347.19 production) (NaPPO1; NaPPO1 incubated with CP and (E)-2-hexenal): little-to-no activity
enzyme activity (m/z 347.19 production) (NaPPO2; NaPPO2 incubated with CP and (E)-2-hexenal): little-to-no activity

SMILES: O=C(/C=C/c1ccc(O)c(O)c1)O[C@@H]1C[C@](O)(C(=O)O)C[C@@H](O)[C@H]1O [CGA, chlorogenic acid]
acceptance as substrate (new products) (NaPPO1; incubated with NaPPO1 and (Z)-3-hexenal): not accepted as substrates
acceptance as substrate (new products) (NaPPO2; incubated with NaPPO2 and (Z)-3-hexenal): not accepted as substrates

SMILES: NCCCCNC(=O)/C=C/c1ccc(O)c(O)c1 [CP, N-caffeoylputrescine]
changes in mortality rates of E. decipiens compared to glucose controls (Empoasca decipiens): no significant changes in mortality rates; also recorded: not affecting leafhopper behavior or performance
preference of Empoasca for irMYC2 plants (Empoasca leafhoppers): did not alter the preference; also recorded: not affecting leafhopper behavior or performance

SMILES: COc1cc(/C=C/C(=O)NCCCCN)ccc1O [FP, N-feruloylputrescine]
changes in mortality rates of E. decipiens compared to glucose controls (Empoasca decipiens): no significant changes in mortality rates; also recorded: not affecting leafhopper behavior or performance
preference of Empoasca for irMYC2 plants (Empoasca leafhoppers): did not alter the preference; also recorded: not affecting leafhopper behavior or performance

Reference: patent publication US20250051266A1, “Novel GLV-Phenolamide: Biosynthesis and Function in Protecting Plants from Herbivore Attack” (Max-Planck-Gesellschaft zur Förderung der Wissenschaften …, priority 2021, published 2025)
